# Tests used:
# A2aR = biological target: T1, A2aR (Homo sapiens, UniProt P29274); assay: A2aR biochemical assay (TR-FRET binding, Tag-lite A2aR labelled cells, fluorescent antagonist); conditions: 10 nM fluorescent A2aR antagonist; for inhibition at 20 µM: 20 μM compound, vs DMSO control, read-out: % inhibition at 20 μM (Percent inhibition data in A2aR); for IC50: four-parameter curve fit, read-out: Potency (IC50 values) of selected compounds in A2aR, group
# T1 construct: expressed in transfected cells
# Procedure: The compounds of present invention were assayed for A2aR enzyme binding activity in a TR-FRET based method. Typically, 10 μL of A2aR labelled cells in assay buffer (Tag-lite, 1×) is added to a 384-well plate containing 5 μL of a compound of present invention in final 1% DMSO, serially diluted in 1:5 in a 5-6 point titration. The aforesaid compound and cells are incubated for 30 minutes at room temperature. Next, 5 μL of A2aR antagonist (fluorescent ligand) in assay buffer is added to the plate. The final concentration of A2aR antagonist is 10 nM. Following 30 minutes reaction at room temperature, the plate was read on a plate reader (Ex: 340 nm Em: 615 nm and 665 nm) to measure the binding of test compound to A2aR cells. The results are interpreted as percentage inhibition as presented in Table-2A of binding by the test compound with respect to the DMSO control.
# [1] = biological target: T2, human-CD73 (Trp27-Lys547, His-tag) (Homo sapiens, UniProt P21589); assay: CD73 biochemical assay (colorimetric, Malachite Green phosphate detection); conditions: 2 nM CD73, 50 μM AMP; for inhibition at 20 µM: 20 μM compound, read-out: % inhibition at 20 μM (Percent inhibition data in CD73); for IC50: four-parameter curve fit, read-out: Potency (IC50 values) of selected compounds in CD73, group
# T2 construct: human-CD73 (Trp27-Lys547, His-tag); His-tag
# T2 sequence (P21589 27-547): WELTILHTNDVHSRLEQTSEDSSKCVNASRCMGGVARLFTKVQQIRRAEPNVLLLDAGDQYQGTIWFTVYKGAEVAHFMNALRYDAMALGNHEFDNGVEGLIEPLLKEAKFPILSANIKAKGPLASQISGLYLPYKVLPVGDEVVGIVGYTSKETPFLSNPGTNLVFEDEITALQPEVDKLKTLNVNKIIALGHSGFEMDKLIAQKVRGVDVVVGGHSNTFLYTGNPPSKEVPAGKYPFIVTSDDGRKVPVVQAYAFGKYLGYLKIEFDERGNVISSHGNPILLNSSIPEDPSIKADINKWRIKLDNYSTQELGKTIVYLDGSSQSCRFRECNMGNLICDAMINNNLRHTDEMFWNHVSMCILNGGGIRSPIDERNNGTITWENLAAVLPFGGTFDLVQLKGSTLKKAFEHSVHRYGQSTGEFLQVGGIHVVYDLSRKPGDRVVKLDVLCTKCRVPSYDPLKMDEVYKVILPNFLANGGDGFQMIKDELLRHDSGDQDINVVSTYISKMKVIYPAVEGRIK
# Procedure: A colorimetric-based method was used for assaying compounds of the invention for CD73 enzyme inhibitory activity. Human CD73 catalyzes the conversion of AMP to adenosine with the release of orthophosphate. A Malachite Green Phosphate Detection kit is used to measure the formation of orthophosphate product. […] A compound of the present invention and enzyme are incubated for 30 minutes at room temperature. Next, 20 μL of AMP in assay buffer is added to the plate. The final concentration of CD73 and AMP are 2 nM and 50 μM respectively. Following 30 minutes reaction at room temperature, 20 μL of Malachite reagent is added to all the reaction wells. The formation of green complex formed between Malachite Green, molybdate and free orthophosphate is measured on a plate reader (620 nm).
# T1 sequence (P29274 whole entry): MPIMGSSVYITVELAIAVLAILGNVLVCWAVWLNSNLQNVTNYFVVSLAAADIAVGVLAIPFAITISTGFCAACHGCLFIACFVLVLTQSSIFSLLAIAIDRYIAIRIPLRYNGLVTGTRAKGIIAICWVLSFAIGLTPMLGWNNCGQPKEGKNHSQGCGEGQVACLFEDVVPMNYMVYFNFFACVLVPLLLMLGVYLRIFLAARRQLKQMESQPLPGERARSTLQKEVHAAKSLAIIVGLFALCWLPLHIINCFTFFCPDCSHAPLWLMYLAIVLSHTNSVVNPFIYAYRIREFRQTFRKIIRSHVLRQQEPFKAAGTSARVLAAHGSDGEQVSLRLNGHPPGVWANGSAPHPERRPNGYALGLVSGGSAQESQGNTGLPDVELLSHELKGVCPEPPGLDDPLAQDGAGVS
Compound,inhibition at 20 µM (A2aR) [%],inhibition at 20 µM [1] [%],IC50 [1] [nM],IC50 (A2aR) [nM]
"NC(=O)c1cc(S(=O)(=O)Nc2ccc(CCCNc3cc(N)n4nc(-c5ccco5)nc4n3)c(F)c2)cc(Cl)c1O [Example A22, 5-(N-(4-(3-((7-amino-2-(furan-2-yl)-[1,2,4]triazolo[1,5-a]pyrimidin-5-yl)amino)propyl)-3-fluorophenyl)sulfamoyl)-3-chloro-2-hydroxybenzamide]",81,95,< 100,
"Nc1nc(NCCc2ccc(NS(=O)(=O)c3cc(Cl)c4c(c3)CC(=O)N4)cc2)nc2nc(-c3ccco3)nn12 [Example B1, N-(4-(2-((7-amino-2-(furan-2-yl)-[1,2,4]triazolo[1,5-a][1,3,5]triazin-5-yl)amino)ethyl)phenyl)-7-chloro-2-oxoindoline-5-sulfonamide]",80,35,,
"Nc1nc(NCCc2ccc(NS(=O)(=O)c3cc(F)c(O)c(Cl)c3)cc2)nc2nc(-c3ccco3)nn12 [Example A4, N-(4-(2-((7-amino-2-(furan-2-yl)-[1,2,4]triazolo[1,5-a][1,3,5]triazin-5-yl)amino)ethyl)phenyl)-3-chloro-5-fluoro-4-hydroxybenzenesulfonamide]",81,27,,
"NC(=O)c1cc(S(=O)(=O)Nc2ccc(CCCOc3cc(N)n4nc(-c5ccco5)nc4n3)cc2)cc(Cl)c1O [Example A21, 5-(N-(4-(3-((7-amino-2-(furan-2-yl)-[1,2,4]triazolo[1,5-a]pyrimidin-5-yl)oxy)propyl)phenyl)sulfamoyl)-3-chloro-2-hydroxybenzamide]",82,98,110 to 1000,
"Nc1nc(NCCCc2ccc(NS(=O)(=O)c3cc(Cl)c4oc(=O)[nH]c(=O)c4c3)cc2)nc2nc(-c3ccco3)nn12 [Example B4, N-(4-(3-((7-amino-2-(furan-2-yl)-[1,2,4]triazolo[1,5-a][1,3,5]triazin-5-yl)amino)propyl)phenyl)-8-chloro-2,4-dioxo-3,4-dihydro-2H-benzo[e][1,3]oxazine-6-sulfonamide]",86,99,,
"CC(C)COC(=O)Nc1nc(NCCc2ccc(NS(=O)(=O)c3cc(Cl)c(O)c(C(N)=O)c3)cc2)nc2nc(-c3ccco3)nn12 [Example A9, Isobutyl (5-((4-((3-carbamoyl-5-chloro-4-hydroxyphenyl)sulfonamido)phenethyl)amino)-2-(furan-2-yl)-[1,2,4]triazolo[1,5-a][1,3,5]triazin-7-yl)carbamate]",82,39,,
"NC(=O)c1cc(S(=O)(=O)Nc2ccc(NCCNc3nc(N)n4nc(-c5ccco5)nc4n3)cc2)cc(Cl)c1O [Example C1, 5-(N-(4-((2-((7-amino-2-(furan-2-yl)-[1,2,4]triazolo[1,5-a][1,3,5]triazin-5-yl)amino)ethyl)amino)phenyl)sulfamoyl)-3-chloro-2-hydroxybenzamide]",81,100,110 to 1000,< 25
"NC(=O)c1cc(S(=O)(=O)Nc2ccc(CCNc3cc(N)n4nc(-c5ccco5)nc4n3)nc2)cc(Cl)c1O [Example E2, 5-(N-(6-(2-((7-amino-2-(furan-2-yl)-[1,2,4]triazolo[1,5-a]pyrimidin-5-yl)amino)ethyl)pyridin-3-yl)sulfamoyl)-3-chloro-2-hydroxybenzamide]",85,94,110 to 1000,
"NC(=O)c1cc(S(=O)(=O)Nc2ccc(CCCNc3nc(N)n4nc(-c5ccco5)nc4n3)c(F)c2)cc(Cl)c1O [Example A14, 5-(N-(4-(3-((7-amino-2-(furan-2-yl)-[1,2,4]triazolo[1,5-a][1,3,5]triazin-5-yl)amino)propyl)-3-fluorophenyl)sulfamoyl)-3-chloro-2-hydroxybenzamide]",82,94,< 100,
"NC(=O)c1cc(S(=O)(=O)Nc2ccc(CCCNc3cc4nc(-c5ccco5)nn4c(N)n3)cc2)cc(Cl)c1O [Example A19, 5-(N-(4-(3-((5-amino-2-(furan-2-yl)-[1,2,4]triazolo[1,5-c]pyrimidin-7-yl)amino)propyl)phenyl)sulfamoyl)-3-chloro-2-hydroxybenzamide]",83,96,> 1000,
"NC(=O)c1cc(S(=O)(=O)Nc2ccc(CCNc3nc(N)n4nc(-c5ccco5)nc4n3)nc2)cc(Cl)c1O [Example E1, 5-(N-(6-(2-((7-amino-2-(furan-2-yl)-[1,2,4]triazolo[1,5-a][1,3,5]triazin-5-yl)amino)ethyl)pyridin-3-yl)sulfamoyl)-3-chloro-2-hydroxybenzamide]",83,86,> 1000,
"NC(=O)c1cc(S(=O)(=O)Nc2ccc(CCNc3nc(N)n4nc(-c5ccco5)nc4n3)cc2F)cc(Cl)c1O [Example A7, 5-(N-(4-(3-((7-amino-2-(furan-2-yl)-[1,2,4]triazolo[1,5-a][1,3,5]triazin-5-yl)amino)ethyl)-2-fluorophenyl)sulfamoyl)-3-chloro-2-hydroxybenzamide]",84,42,,
"NC(=O)c1cc(S(=O)(=O)Nc2ccc(CCCOc3nc(N)n4nc(-c5ccco5)nc4n3)cc2)cc(Cl)c1O [Example A12, 5-(N-(4-(3-((7-amino-2-(furan-2-yl)-[1,2,4]triazolo[1,5-a][1,3,5]triazin-5-yl)oxy)propyl)phenyl)sulfamoyl)-3-chloro-2-hydroxybenzamide]",72,99,< 100,> 50
"NC(=O)c1cc(S(=O)(=O)Nc2ccc(CCCNc3nc(N)n4nc(-c5ccco5)nc4n3)c(O)c2)cc(Cl)c1O [Example A13, 5-(N-(4-(3-((7-amino-2-(furan-2-yl)-[1,2,4]triazolo[1,5-a][1,3,5]triazin-5-yl)amino)propyl)-3-hydroxyphenyl)sulfamoyl)-3-chloro-2-hydroxybenzamide]",83,97,< 100,25.1 to 50
"NC(=O)c1cc(S(=O)(=O)Nc2cccc3c2cnn3CCNc2nc(N)n3nc(-c4ccco4)nc3n2)cc(Cl)c1O [Example D2, 5-(N-(1-(2-((7-amino-2-(furan-2-yl)-[1,2,4]triazolo[1,5-a][1,3,5]triazin-5-yl)amino)ethyl)-1H-indazol-4-yl)sulfamoyl)-3-chloro-2-hydroxybenzamide]",79,62,> 1000,
"CN(CCCc1ccc(NS(=O)(=O)c2cc(Cl)c(O)c(C(N)=O)c2)cc1)c1nc(N)n2nc(-c3ccco3)nc2n1 [Example A17, 5-(N-(4-(3-((7-amino-2-(furan-2-yl)-[1,2,4]triazolo[1,5-a][1,3,5]triazin-5-yl)(methyl)amino)propyl)phenyl)sulfamoyl)-3-chloro-2-hydroxybenzamide]",82,95,110 to 1000,
"Nc1nc(NCCc2ccc(NS(=O)(=O)c3cc(Cl)c4c(c3)C(Cl)(Cl)C(=O)N4)cc2)nc2nc(-c3ccco3)nn12 [Example B2, N-(4-(2-((7-amino-2-(furan-2-yl)-[1,2,4]triazolo[1,5-a][1,3,5]triazin-5-yl)amino)ethyl)phenyl)-3,3,7-trichloro-2-oxoindoline-5-sulfonamide]",79,39,,
